Reference: patent US20250101032A1, “EXATECAN DERIVATIVES AND ANTIBODY-DRUG CONJUGATES THEREOF” (priority 2021, published 2025)
Values after ≈ are worked out from the molar mass of the structure shown.

Key:
physchem = conditions: 25 °C, pH 7.4, aqueous buffer, kinetic from dmso stock
Experimental: In-vitro kinetic solubilities of the compounds in PBS pH 7.4 buffer at 25° C. were determined by diluting compounds from 100% dimethyl sulfoxide (DMSO) into PBS buffer and measuring absorbance at 490, 590 and 650 nm. Stock concentrations in 100% DMSO were provided at 1-6 mM in 100% DMSO. Kinetic solubilities were determined by diluting test compounds from 100% DMSO into PBS pH 7.4 buffer, as duplicate, 10 point 2-fold serial dilution starting at 100× dilution of stock DMS solution into PBS buffer in a clear, flat bottom polystyrene assay plates. Total assay volume was 200 microliters. Solutions were mixed by plate shaking, incubated for 30 m at 25° C., and absorbance was read at 490, 590 and 650 nm. […] in PBS buffer was used as a blank. For each test compound, average optical density (GD) at each concentration was determined by averaging the blank corrected sum of absorption at 490 nm, 590 nm and 650 nm, over duplicate measurements. Turbidity threshold optical density value was set as a sum of mean plus two standard deviations of the mean of absorbances at 490, 590 and 650 nm for 1% (v/v) DMSO in PBS pH 7.4 buffer. Highest soluble concentration (micromolar) corresponded to the highest concentration at which average optical density was below optical density value set for turbidity threshold (Table 4). Amiodarone and propranolol were used as low and high solubility controls respectively.

SKBR3 = test: In vitro cytotoxicity assay (CellTiter-Glo), SKBR3; assay type: cell-based, Human; conditions: Homo sapiens, SK-BR-3, 144 h, read-out: Cytotoxicity IC50
Experimental: (§1) Human tumor cell lines, SK-BR-3, NCI-H292, HT-29, MCF-7, NCI-N87, and FaDu were obtained from ATCC. NCI-H292, HT-29, MCF-7, and NCI-N87 cells were cultured in RPMI-1640 media (Gibco, Life Technologies) supplemented with 10% v/v heat inactivated FBS (Corning), FaDu cells were maintained in DMEM media (Gibco, Life Technologies) supplemented with 10% v/v heat inactivated FBS (Corning). SK-BR-3 cells were maintained in McCoys 5A medium (Gibco, Life Technologies) supplemented with 10% […] heat inactivated FBS (Corning) at 37° C. in a humidified incubator containing 5% CO2.
(§2) Lyophilized compounds were dissolved in 100% dry DMSO, aliquots frozen and stored at −80° C. Concentration and purity of compound stock solutions in DMSO were determined by RP-HPLC Agilent 1100 platform with 1200 DAD and SofTA ELSD detectors, and the Agilent 6150 MS system (UV/VIS, ELSD purity and MS compound identity confirmation). Shimadzu 3.0 mm×30 mm XR ODS 2.2 μm column was run at 50° C., 1.5 mL/min. Solvent A: 0.1% Formic acid in water, Solvent B: 0.08% Formic acid in methanol-Gradient: 5%-100% B in 3.0 min, 100% solvent B for 0.3 min. Concentration of compounds in 100% DMSO determined by ELS ranged from 1-6 mM.
(§3) Cells were plated in 96-well white flat-bottomed plates (Corning) at 2.0×10^3 cells per well in 100 μL culture medium. After incubation for 24 hours, test compounds were added at a range of concentrations as ten point serial dilution as duplicates or triplicates. Following further incubation for 6 days 37° C., 5% CO2, cell viability was assessed with the use of a CellTiter-Glo Luminescent Cell Viability Assay (Promega). Luminescence was measured using the GloMax instrument (Promega). […] For a subset of payloads, each treatment was independently repeated two to eight times, and IC50 values were averaged. […] Standard deviation (stdev) is shown as (N/A) for treatment performed once.

HT29 = test: In vitro cytotoxicity assay (CellTiter-Glo), HT29; assay type: cell-based, Human; conditions: Homo sapiens, HT-29, 144 h, read-out: Cytotoxicity IC50
Experimental: as §1, §2, §3

NCI-H292 = test: In vitro cytotoxicity assay (CellTiter-Glo), NCI-H292; assay type: cell-based, Human; conditions: Homo sapiens, NCI-H292, 144 h, read-out: Cytotoxicity IC50
Experimental: as §1, §2, §3

MCF7 = test: In vitro cytotoxicity assay (CellTiter-Glo), MCF7; assay type: cell-based, Human; conditions: Homo sapiens, MCF7, 144 h, read-out: Cytotoxicity IC50
Experimental: as §1, §2, §3

NCI-N87 = test: In vitro cytotoxicity assay (CellTiter-Glo), NCI-N87; assay type: cell-based, Human; conditions: Homo sapiens, NCI-N87, 144 h, read-out: Cytotoxicity IC50
Experimental: as §1, §2, §3

FaDu = test: In vitro cytotoxicity assay (CellTiter-Glo), FaDu; assay type: cell-based, Human; conditions: Homo sapiens, FaDu, 144 h, read-out: Cytotoxicity IC50
Experimental: as §1, §2, §3

SKOV3 = test: In vitro cytotoxicity assay (CellTiter-Glo), SKOV3; assay type: cell-based; conditions: Homo sapiens, SK-OV-3, 144 h, read-out: Cytotoxicity IC50
Experimental: (§4) Lyophilized compounds were dissolved in 100% dry DMSO, aliquots frozen and stored at −80° C. […] Shimadzu 3.0 mm×30 mm XR ODS 2.2 μm column was run at 50° C., 1.5 mL/min. Solvent A: 0.1% Formic acid in water, Solvent B: 0.08% Formic acid in methanol-Gradient: 5%-100% B in 3.0 min, 100% solvent B for 0.3 min.
as §3

BXPC3 = test: In vitro cytotoxicity assay (CellTiter-Glo), BXPC3; assay type: cell-based; conditions: Homo sapiens, BXPC-3, 144 h, read-out: Cytotoxicity IC50
Experimental: as §4, §3

Question: For `CC[C@@]1(O)C(=O)OCc2c1cc1n(c2=O)Cc2c-1nc1cc(F)c(C)c3c1c2[C@@H](NC(=O)CC(=O)NCCO)CC3` [Compound 12], which solubility at 30 min (physchem) is on record?
Answer: 17 µM (≈ 9.6 µg/mL)

Question: What about the IC50 (SKBR3) of the same compound?
Answer: 30.5 nM

Question: And the IC50 (HT29)?
Answer: 318 nM

Question: And the IC50 (NCI-H292)?
Answer: 68.6 nM

Question: And the IC50 (MCF7)?
Answer: 43.9 nM

Question: And the IC50 (NCI-N87)?
Answer: 92 nM

Question: What about the IC50 (FaDu) of the same compound?
Answer: 16.4 nM

Question: What about the IC50 (SKOV3) of the same compound?
Answer: 151 nM

Question: And the IC50 (BXPC3)?
Answer: 45.6 nM

Question: For `CC[C@@]1(O)C(=O)OCc2c1cc1n(c2=O)Cc2c-1nc1cc(F)c(C)c3c1c2[C@@H](N)CC3` [Exatecan, exatecan], which solubility at 30 min (physchem) is on record?
Answer: 24 µM (≈ 10.5 µg/mL)

Question: What about the IC50 (SKBR3) of the same compound?
Answer: 0.5 nM

Question: And the IC50 (HT29)?
Answer: 1 nM

Question: What about the IC50 (NCI-H292) of the same compound?
Answer: 1.3 nM

Question: What about the IC50 (MCF7) of the same compound?
Answer: 0.4 nM

Question: What about the IC50 (NCI-N87) of the same compound?
Answer: 1.2 nM

Question: And the IC50 (FaDu)?
Answer: 0.6 nM

Question: What about the IC50 (SKOV3) of the same compound?
Answer: 0.7 nM

Question: And the IC50 (BXPC3)?
Answer: 0.3 nM

Question: What does the source list for `CC[C@@]1(O)C(=O)OCc2c1cc1n(c2=O)Cc2c-1nc1cc(F)c(C)c3c1c2[C@@H](NCCO)CC3` [Compound 105]?
Answer: solubility at 30 min (physchem): 25 µM (≈ 12 µg/mL); IC50 (SKBR3): 0.9 nM; IC50 (HT29): 2.1 nM; IC50 (NCI-H292): 1.7 nM; IC50 (MCF7): 1.4 nM; IC50 (NCI-N87): 1.6 nM; IC50 (FaDu): 1.3 nM; IC50 (SKOV3): 1.8 nM; IC50 (BXPC3): 0.6 nM

Question: Which solubility at 30 min (physchem) does the source give for `CC[C@@]1(O)C(=O)OCc2c1cc1n(c2=O)Cc2c-1nc1cc(F)c(C)c3c1c2[C@@H](NC(=O)CCC(=O)NCC(O)CO)CC3` (stereo partly drawn) [Compound 117] here?
Answer: 30 µM (≈ 18.3 µg/mL)

Question: What about the IC50 (SKBR3) of the same compound?
Answer: 474 nM

Question: And the IC50 (HT29)?
Answer: 2910 nM

Question: What about the IC50 (NCI-H292) of the same compound?
Answer: 888 nM

Question: And the IC50 (MCF7)?
Answer: 342 nM

Question: What about the IC50 (NCI-N87) of the same compound?
Answer: 1450 nM

Question: And the IC50 (FaDu)?
Answer: 234 nM

Question: And the IC50 (SKOV3)?
Answer: 1090 nM

Question: And the IC50 (BXPC3)?
Answer: 412 nM

Question: What does the source list for `CC[C@@]1(O)C(=O)OCc2c1cc1n(c2=O)Cc2c-1nc1cc(F)c(C)c3c1c2[C@@H](Nc1c(NCCO)c(=O)c1=O)CC3` [Compound 2]?
Answer: solubility at 30 min (physchem): 15 µM (≈ 8.62 µg/mL); IC50 (SKBR3): 75.4 nM; IC50 (HT29): 180 nM; IC50 (NCI-H292): 96 nM; IC50 (MCF7): 41.4 nM; IC50 (NCI-N87): 111 nM; IC50 (FaDu): 23.4 nM; IC50 (SKOV3): 124 nM; IC50 (BXPC3): 29.8 nM

Question: What does the source list for `CC[C@@]1(O)C(=O)OCc2c1cc1n(c2=O)Cc2c-1nc1cc(F)c(C)c3c1c2[C@@H](NC(=O)CCC(=O)NCCO)CC3` [Compound 16]?
Answer: solubility at 30 min (physchem): 22 µM (≈ 12.7 µg/mL); IC50 (SKBR3): 166 nM; IC50 (HT29): 1140 nM; IC50 (NCI-H292): 290 nM; IC50 (MCF7): 140 nM; IC50 (NCI-N87): 736 nM; IC50 (FaDu): 72 nM; IC50 (SKOV3): 341 nM; IC50 (BXPC3): 149 nM

Question: For `CC[C@@]1(O)C(=O)OCc2c1cc1n(c2=O)Cc2c-1nc1cc(F)c(C)c3c1c2[C@@H](Nc1c(NC(CO)(CO)CO)c(=O)c1=O)CC3` [Compound 18], which solubility at 30 min (physchem) is on record?
Answer: 13 µM (≈ 8.25 µg/mL)

Question: What about the IC50 (SKBR3) of the same compound?
Answer: 65.7 nM

Question: What about the IC50 (HT29) of the same compound?
Answer: 179 nM

Question: What about the IC50 (NCI-H292) of the same compound?
Answer: 82.1 nM

Question: What about the IC50 (MCF7) of the same compound?
Answer: 40.7 nM

Question: What about the IC50 (NCI-N87) of the same compound?
Answer: 158 nM

Question: What about the IC50 (FaDu) of the same compound?
Answer: 42.9 nM

Question: And the IC50 (SKOV3)?
Answer: 167 nM

Question: What about the IC50 (BXPC3) of the same compound?
Answer: 44.9 nM

Question: Which results are given for `CC[C@@]1(O)C(=O)OCc2c1cc1n(c2=O)Cc2c-1nc1cc(F)c(C)c3c1c2[C@@H](NC(=O)c1ccc(CO)o1)CC3` [Compound 103]?
Answer: solubility at 30 min (physchem): 7 µM (≈ 3.92 µg/mL); IC50 (SKBR3): 6.9 nM; IC50 (HT29): 14.4 nM; IC50 (NCI-H292): 6 nM; IC50 (MCF7): 4.6 nM; IC50 (NCI-N87): 17.2 nM; IC50 (FaDu): 1.5 nM; IC50 (SKOV3): 26.5 nM; IC50 (BXPC3): 6.4 nM
